The structures appear in SMILES notation. Structures can show the parent of a compound that is named as a salt. Where two headings read alike, the source gives them in different places.

The nature of data set [1]: apparent dissociation constant of putative Ca*ligand complex from potentiometric Ca^2+ activity. Format: physicochemical. Particulars: 20 mM Hepes, pH 7.0 to 7.6, dilutions with 0.15 mM of NaCl, average of n determinations; for Kd: read-out: kd ± S.D. As to the method:
Bovine plasma deficient in vitamin K dependent coagulation factors and thromboplastin from rabbit brain were the corresponding components from PK-reagent GHI 129 detailed above. Ca^2+ activity and pH in plasma were determined potentiometrically with an ICA 2 (Radiometer, Copenhagen, Denmark) apparatus.
In order to identify compounds that could function as buffers for Ca^2+ at physiological levels, i.e. at about 1.3 mM of Ca^2+, water soluble compounds, either with reported dissociation constants in the range of 0.5 to 5 mM or otherwise appearing interesting, were experimentally investigated. Below, these compounds are referred to as Ca^2+ ligands or simply ligands. Experiments described below were performed to deduce the apparent dissociation constants under physiological like conditions and at ligand concentrations meaningful for Ca^2+ buffering.
Solution of 200 mM of ligand containing 20 mM of Hepes was adjusted to pH 7.4 and mixed with an equal volume of 100 mM of CaCl2 solution. These mixtures were diluted 1:2, 1:4, 1:8 and 1:16 with […]. […] From the experimentally determined Ca^2+ activity and the stoikiometric levels of ligand and Ca^2+, the apparent dissociation constant for a putative Ca*ligand complex was determined as the average of all available data.

The conditions of data set [2]: cited from earlier work.
The nature of data set [3]: addition of CaCl2 solution to anti-coagulant solutions to reach physiological Ca^2+. Format: physicochemical. The conditions noted are these: solutions of the Ca^2+ binding substance plus CaCl2. An excerpt: This gave rise to the idea that these substances could perform as anticoagulants also at near physiological levels of Ca^2+ activity. […] This was possible with iso-citrate but not with citrate. […] The following therefore only describes experiments with iso-citrate.

The test system of data set [4] is prothrombin complex (coagulation factors VII, X and II). The experiment in a line: coagulation time in prothrombin complex (PK) system with added citrate or iso-citrate. Format: biochemical. As to the method: Activated partial thromboplastin time (APTT), prothrombin time (PT), prothrombin complex, (PK), assay, factor VIII and fibrin D-dimer were determined in compliance with manufacturers recommendations using the following reagents; PTT Automate, Diagnostica Stago, Asnieres-sur-Seine, France; Thromborel® S, Behring Diagnostics GmbH, Marburg, Germany; PK-reagent GHI 129, Global Hemostasis Institute MGR, Linköping, Sweden; and Coamatic® Factor VIII, Chromogenix, Mölndal, Sweden. The tests were performed on an Automated Coagulation Laboratory instrument, ACL, model 810 (Instrumentation Laboratory, Milan, Italy).
Coagulation analysis of blood and blood plasma are performed in many different ways. Most such analysis have the following in common. […] This Ca^2+ buffer capacity was determined in a system composed of sample, bovine plasma deficient in vitamin K dependent coagulation factors and rabbit brain thromboplastin. […] For each level of addition, the calcium ion buffering capacity of the analytical system was determined. The buffer capacity was determined at Ca^2+ activity in the range of 1 to 4 mM.
The assay response of the system described in Example 5 is investigated. […] The coagulation time is recorded. And after compacting of the coagulum by centrifugation for 3 minutes at 10,000×g, the Ca2+ activity is determined. […]

The mark [5] stands for this setting: in 0.1 M KNO3, read-out: published estimate.
Where [6] appears, read: prior art, at physiological conditions.
[7] abbreviates: in 0.1 M NaClO4, read-out: published estimate.

With `Nc1nc(N)c2[nH]cnc2n1` [2,6-diaminopurine], the Kd in data set [1] is 50 ± 24 mM; in data set [2] (setting [5]) it was 1.6 mM.
Consider `O=C(O)CN(CCN(CC(=O)O)CC(=O)O)CC(=O)O` [EDTA], for which the “apparent dissociation constant of Ca^2+ complexes” value in data set [2] (setting [6]) was “considerably tighter”.
Consider `Nc1ncnc2nc[nH]c12` [adenine], for which the Kd was 70 ± 40 mM in data set [1] and 1.1 mM in data set [2] (setting [5]).
Regarding `O=C(O)CC(O)(CC(=O)O)C(=O)O` [citrate, Tri-sodium citrate], the Kd in data set [1] is 0.5 ± 0.05 mM; in data set [2] (medium not given, read-out: published estimate) it was 0.58 mM; in data set [2] (prior art, at physiological conditions, read-out: apparent dissociation constant of Ca^2+ complexes) it was approximately 0.4 mM. The “making solutions with physiological levels of Ca^2+ by adding CaCl2 solution” value in data set [3] was “formed precipitates”. Moreover, the “inhibition of coagulation (coagulation time) in PK system” value in data set [4] (5, 10 or 20 mM added, Ca^2+ activity 0.7 to 9 mM) was “inhibit coagulation at all Ca^2+ activity levels”. In data set [4] (Ca^2+ activity of 1.5, FIG. 8), the “inhibitory effect on coagulation time per molar unit, citrate versus iso-citrate” value is “about twice as inhibitory as iso-citrate per molar unit”.
With `CC(C)(C(=O)O)C(=O)O` [dimethylmalonate, dimethylmalonic acid], the Kd in data set [2] (setting [7]) was 30.2 mM.
Consider `O=C(O)CNCC(=O)O` [iminodiacetate], for which the Kd in data set [1] was 29 ± 12 mM; in data set [2] (in 1 M KNO3, read-out: published estimate) it was 8.1 mM.
In the case of `CC(C(=O)O)C(=O)O` [methylmalonate, methylmalonic acid], the Kd is 22 ± 3 mM in data set [1] and 22.4 mM in data set [2] (setting [7]).
On to `O=C(O)C(=O)O` [oxalate, oxalic acid], for which the “kd ± S.D.” value in data set [1] is given as “oxalate (precipitated)”. Besides, the Kd in data set [2] (setting [5]) is 5 mM. For the same compound, the “apparent dissociation constant of Ca^2+ complexes” value in data set [2] (setting [6]) is “considerably tighter”.
For the compound `O=C(O)c1ccccc1C(=O)O` [phthalate, phthalic acid], the Kd is 26 ± 73 mM in data set [1] and 3.9 mM in data set [2] (in 0.1 M KCl, read-out: published estimate).
For the compound `O=C(O)/C=C(\CC(=O)O)C(=O)O` [trans-aconitate, trans-aconitic acid], the Kd in data set [1] turned out to be 29 ± 53 mM.
Turning to `O=C(O)CC(CC(=O)O)C(=O)O` [tricarballylate, tricarballylic acid], the Kd in data set [1] was determined as 22 ± 53 mM.
